Reference: US9273364B2 (Kyoto University, priority 2010, dated 2016)
Where a name gives a salt, the structure may show the parent alone. Read-outs that look alike come from different tables or passages of the source.

Test system: alternative splicing of a specific gene (GFP/RFP reporter)
Assay: Compound screen with GFP/RFP alternative splicing reporter
Assay type: cell-based
Text: Strategy of a method for testing whether or not a compound to be tested affects an alternative splicing of a specific gene in a mammalian multicelluar organism is shown in FIG. 14.
The reporter proteins used for the method are GFP and FRP.

[1] = cell count after compound at final conc., Ctrl number of cells 4303-5627
[2] = reporter ratio relative to control = 1, final conc. per compound (μM, 50 ng/mL)

Compound | Number of cells (50 ng/mL) | Number of cells | Number of cells [1] | also measured
CCCCC[C@H](O)/C=C/[C@H]1[C@H](O)CC(=O)[C@@H]1CCCCCCC(=O)O [Alprostadil] | 3505 | – | – | –
C[C@H]1[C@H](OC(=O)CCC(=O)O)O[C@@H]2O[C@@]3(C)CC[C@H]4[C@H](C)CC[C@@H]1[C@@]24OO3 [Artesunate] | 246 | – | – | –
COc1ccc(CCN2CCC(Nc3nc4ccccc4n3Cc3ccc(F)cc3)CC2)cc1 [Astemizole] | 38 | – | – | –
CC(=O)OC[C@H]1O[C@@H]([S-])[C@H](OC(C)=O)[C@@H](OC(C)=O)[C@@H]1OC(C)=O.CCP(CC)CC.[Au+] [Auranofin] | – | – | 1 | GFP/RFP (Ctrl = 1): 4.915
Cc1cc2c(OCC(CNC(C)(C)C)OC(=O)c3ccccc3)cccc2[nH]1.O=C(O)CC(=O)O (stereo not drawn) [Bopindolol malonate] | – | 3625 | – | GFP/RFP (Ctrl = 1) [2]: 1.265
CCCC(=O)OCC[N+](C)(C)C.[Cl-] [Butyrylcholine Cl] | – | – | – | count per well with compound (column 9, head not shown; probably cell number; c10 = plate reference): 4016; reporter fluorescence ratio relative to control (last column of Table 4, head not shown; table sorted by this value): 1.016
CC[C@@]1(O)C(=O)OCc2c1cc1n(c2=O)Cc2cc3ccccc3nc2-1 [Camptothecin] | – | – | 385 | –
COc1cc(CNC(=O)CCCC/C=C/C(C)C)ccc1O [Capsaicin] | – | – | 1918 | –
C[C@@](Cc1ccc(O)c(O)c1)(NN)C(=O)O [Carbidopa] | – | 3470 | – | –
N.N.O=C([O-])C1(C(=O)[O-])CCC1.[Pt+2] [Carboplatin] | – | – | 1373 | GFP/RFP (Ctrl = 1): 1.875
CC1(C)C[C@@H]1C(=O)N/C(=C\CCCCSC[C@H](N)C(=O)O)C(=O)O [Cilastatin] | – | – | – | cell count per well (c9; column head not printed in these continuation tables, meaning inferred): 2885
O=P1(N(CCCl)CCCl)NCCCO1 (stereo not drawn) [Cyclophosphamide monohydrate] | – | – | – | cell count per well (c9; column head not printed in these continuation tables, meaning inferred): 3065
COc1cccc2c1C(=O)c1c(O)c3c(c(O)c1C2=O)C[C@@](O)(C(C)=O)C[C@@H]3O[C@H]1C[C@H](N)[C@H](O)[C@H](C)O1 [Daunorubicin HCl] | 3 | – | – | –
CC(CCc1ccc(O)cc1)NCCc1ccc(O)c(O)c1 (stereo not drawn) [Dobutamine HCl] | – | – | 2991 | –
CC(=O)O[C@@]12CO[C@@H]1C[C@H](O)[C@@]1(C)C(=O)[C@H](O)C3=C(C)[C@@H](OC(=O)[C@H](O)[C@@H](NC(=O)OC(C)(C)C)c4ccccc4)C[C@@](O)([C@@H](OC(=O)c4ccccc4)[C@H]21)C3(C)C [Docetaxil] | – | 1194 | – | GFP/RFP (Ctrl = 1) [2]: 1.862
COc1cccc2c1C(=O)c1c(O)c3c(c(O)c1C2=O)C[C@@](O)(C(=O)CO)C[C@@H]3O[C@H]1C[C@H](N)[C@H](O)[C@H](C)O1 [Doxorubicin HCl] | 18 | – | – | –
CNC[C@H](O)c1ccc(O)c(O)c1.O=C(O)C(O)C(O)C(=O)O [Epinephrine-(+)-tartrate l (−)] | – | 4057 | – | GFP/RFP (Ctrl = 1) [2]: 1.528
COc1cc([C@@H]2c3cc4c(cc3[C@@H](O[C@@H]3O[C@@H]5CO[C@@H](C)O[C@H]5[C@H](O)[C@H]3O)[C@H]3COC(=O)[C@H]23)OCO4)cc(OC)c1O [Etoposide] | 055 | – | – | –
COc1ccc2c(c1)[nH]c1c(C)nccc12 [Harmine] | – | – | 537 | –
CO[C@@]12[C@H](COC(N)=O)C3=C(C(=O)C(C)=C(N)C3=O)N1C[C@@H]1N[C@@H]12 [Mitomycin c] | – | – | 319 | GFP/RFP (Ctrl = 1): 3.767
Cl.Cl.O=C1c2c(O)ccc(O)c2C(=O)c2c(NCCNCCO)ccc(NCCNCCO)c21 [Mitoxantrone 2HCl] | – | 31 | – | GFP/RFP (Ctrl = 1) [2]: 2.651
C[C@@H]1[C@H](O)[C@@H](C)/C=C/C=C/CC/C=C/C=C/C=C/C=C/C(O[C@H]2O[C@H](C)[C@@H](O)[C@H](N)[C@@H]2O)CC2O[C@](O)(CC(O)C(O)CCC(O)CC(O)CC(O)CC(=O)O[C@H]1C)CC(O)C2C(=O)O (stereo partly drawn) [Nystatin] | – | – | 3293 | GFP/RFP (Ctrl = 1): 1.253
O=C1[O][Pt]2([NH][C@@H]3CCCC[C@H]3[NH]2)[O]C1=O [Oxaliplatin] | – | – | 825 | GFP/RFP (Ctrl = 1): 2.271
CC1(C)S[C@@H]2[C@H](NC(=O)COc3ccccc3)C(=O)N2[C@H]1C(=O)[O-].[K+] [Pencillin v potassium] | – | – | – | reporter fluorescence ratio, GFP/RFP (c11; column head not printed in these continuation tables, table sorted descending by it): 1.134
CO[C@H]1C[C@@H]2CC[C@@H](C)[C@@](O)(O2)C(=O)C(=O)N2CCCC[C@H]2C(=O)O[C@H]([C@H](C)C[C@@H]2CC[C@@H](O)[C@H](OC)C2)CC(=O)[C@H](C)/C=C(\C)[C@@H](O)[C@@H](OC)C(=O)[C@H](C)C[C@H](C)/C=C/C=C/C=C/1C [Rapamycin] | – | – | 2046 | –
COc1ccc(C2CNC(=O)C2)cc1OC1CCCC1 (stereo not drawn) [Rolipram] | – | – | 2878 | –
COc1cc(-c2ccc(=O)[nH]n2)ccc1OC(F)F [Zardaverine] | – | – | 2744 | –
Apomorphine r (−) | – | – | 3372 | GFP/RFP (Ctrl = 1): 1.357
Bleomycin sulfate | – | – | 2702 | GFP/RFP (Ctrl = 1): 1.477

Continued, in another order:

Number of cells (50 ng/mL) | Number of cells | Compound | Number of cells [1] | also measured
116 | – | CCOC(=O)C1=C(C)NC(C)=C(C(=O)OC)C1c1cccc(Cl)c1Cl (stereo not drawn) [Felodipine] | – | –
1367 | – | COc1c(C)c2c(c(O)c1C/C=C(\C)CCC(=O)O)C(=O)OC2 [Mycophenolic acid] | – | –
156 | – | COC(=O)C1=C(C)NC(C)=C(C(=O)OC)C1c1ccccc1[N+](=O)[O-] [Nifedipine] | – | –
– | 4210 | NC[C@H](O)c1ccc(O)c(O)c1.O=C(O)C(O)C(O)C(=O)O [Norepinephrine-(+)-tartrate l (−)] | – | GFP/RFP (Ctrl = 1) [2]: 1.594
2694 | – | N=C(N)c1ccc(OCCCCCOc2ccc(C(=N)N)cc2)cc1 [Pentamidine] | – | –
– | 2109 | COc1cc2nc(N3CCN(C(=O)c4ccco4)CC3)nc(N)c2cc1OC [Prazosin HCl] | – | –
– | 4151 | CCC(NC(C)C)C(O)c1ccc(O)c2[nH]c(=O)ccc12 (stereo not drawn) [Procaterol hcl] | – | –
2641 | – | CC(C)NCC(O)COc1cccc2ccccc12 (stereo not drawn) [Propranolol] | – | –
– | 5 | CCN(CC)CCCC(C)Nc1c2ccc(Cl)cc2nc2ccc(OC)cc12.Cl.Cl.O.O (stereo not drawn) [Quinacrine 2HCl dihydrate] | – | GFP/RFP (Ctrl = 1) [2]: 3.153
– | 2697 | CC1=C(/C=C/C(C)=C/C=C/C(C)=C/C(=O)O)C(C)(C)CCC1 [Retinoic acid] | – | –
– | 3105 | Cl.O=C(O)c1cn(-c2ccc(F)cc2)c2cc(N3CCNCC3)c(F)cc2c1=O [Satafloxacin HCl] | – | GFP/RFP (Ctrl = 1) [2]: 1.341
3029 | – | C[C@@H]1CN(c2c(F)c(N)c3c(=O)c(C(=O)O)cn(C4CC4)c3c2F)C[C@H](C)N1 [Sparfloxacin] | – | –
2210 | – | Cc1coc2c1C(=O)C(=O)c1c-2ccc2c1CCCC2(C)C [Tanshinone iia] | – | –
719 | – | CC(=O)O[C@H]1C(=O)[C@@]2(C)[C@H]([C@H](OC(=O)c3ccccc3)[C@]3(O)C[C@H](OC(=O)[C@H](O)[C@@H](NC(=O)c4ccccc4)c4ccccc4)C(C)=C1C3(C)C)[C@]1(OC(C)=O)CO[C@@H]1C[C@@H]2O [Taxol] | – | –
– | 2622 | O=C1CCC(N2C(=O)c3ccccc3C2=O)C(=O)N1 (stereo not drawn) [Thaldomide] | – | GFP/RFP (Ctrl = 1) [2]: 1.271
– | 3009 | COc1cc2c(cc1OC)-c1c/c(=N\c3c(C)cc(C)cc3C)n(C)c(=O)n1CC2 [Trequinsin] | – | –
– | 4053 | Salbutamol sulfate | – | GFP/RFP (Ctrl = 1) [2]: 1.295
